Assay results reported in PubChem BioAssay (NCI).
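Protocol summary: plate cells (96-well), add compound at 5 concentrations, incubate 48 h, interpolate endpoints linearly. TGI marks complete inhibition of growth.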

Tests used:
Experiment in all cases: NCI anticancer screen, dose series, 48 h
U251 CNS = test system: U251 CNS
NCI-H522 lung = test system: NCI-H522 lung
OVCAR-4 ovarian = test system: OVCAR-4 ovarian
ACHN renal = test system: ACHN renal
SW-620 colon = test system: SW-620 colon
HL-60(TB) leukemia = test system: HL-60(TB) leukemia
KM20L2 colon = test system: KM20L2 colon
DMS 114 small cell lung = test system: DMS 114 small cell lung
DLD-1 colon = test system: DLD-1 colon
M19-MEL melanoma = test system: M19-MEL melanoma
LXFL 529 NSCLC = test system: LXFL 529 NSCLC
DMS 273 small cell lung = test system: DMS 273 small cell lung
SNB-78 CNS = test system: SNB-78 CNS
HOP-18 NSCLC = test system: HOP-18 NSCLC
XF 498 CNS = test system: XF 498 CNS

SMILES | TGI (U251 CNS) [µM] | TGI (NCI-H522 lung) [µM] | TGI (OVCAR-4 ovarian) [µM] | TGI (ACHN renal) [µM] | TGI (SW-620 colon) [µM] | TGI (HL-60(TB) leukemia) [µM] | TGI (KM20L2 colon) [µM] | TGI (DMS 114 small cell lung) [µM] | TGI (DLD-1 colon) [µM] | TGI (M19-MEL melanoma) [µM] | TGI (LXFL 529 NSCLC) [µM] | TGI (DMS 273 small cell lung) [µM] | TGI (SNB-78 CNS) [µM] | TGI (HOP-18 NSCLC) [µM] | TGI (XF 498 CNS) [µM]
NC(N)=NCCCC(NC(=O)c1cccc2c(=O)c3ccccc3[nH]c12)C(=O)O (stereo not drawn) | > 100 | > 100 | > 100 | > 100 | > 100 | > 100 | – | – | – | – | – | – | – | – | –
O=C(NC1=C(Cl)C(=O)c2ccccc2C1=O)c1ccc(F)cc1 | 12.2 | 1.84 | 20 | 4.85 | 2.51 | > 100 | – | – | – | – | – | – | – | – | –
CS(=O)(=O)OCC1CN(S(C)(=O)=O)c2cc(O)ccc21 (stereo not drawn) | 7.26 | 2.94 | 7.65 | 15.1 | 28.3 | 6.59 | – | – | – | – | – | – | – | – | –
Oc1ccc(-c2cc(-c3cc(-c4ccc(O)cc4)no3)on2)cc1 | > 100 | > 100 | > 100 | > 100 | > 100 | > 100 | – | – | – | – | – | – | – | – | –
CN(C)c1ccc(C(Cc2ccccc2)C2NC(=S)NC2=O)cc1 (stereo not drawn) | > 100 | > 100 | > 100 | > 100 | > 100 | > 100 | – | – | – | – | – | – | – | – | –
COc1ccc(CC2(O)C3CC4CCC2C4C3)cc1 (stereo not drawn) | > 100 | > 100 | > 100 | > 100 | > 100 | > 100 | – | – | – | – | – | – | – | – | –
Cc1ccc(NC(Nc2ccc(C)cc2C)=C(/C=C(\Cl)[N+](=O)[O-])[N+](=O)[O-])c(C)c1 | 23.6 | 4.52 | 12.9 | 8.26 | 4.02 | 2.6 | – | – | – | – | – | – | – | – | –
c1ccc2c(c1)C1CCCCCC21N1CCOCC1 (stereo not drawn) | > 100 | > 100 | > 100 | > 100 | > 100 | > 100 | > 100 | > 100 | > 100 | > 100 | > 100 | > 100 | > 100 | – | –
CN1c2ccccc2C(=O)NC12CCN(CCCC(=O)c1ccc(F)cc1)CC2 | > 100 | > 100 | > 100 | > 100 | > 100 | > 100 | – | – | – | – | – | – | – | – | –
C=C(Br)CNC(=O)Nc1ccc(Cl)c(Cl)c1 | 66 | 57.4 | > 100 | 55 | > 100 | 38.3 | – | – | – | – | – | – | – | – | –
O=C(NNCC(O)COc1ccccc1)c1ccccc1 (stereo not drawn) | > 100 | > 100 | > 100 | > 100 | > 100 | > 100 | – | – | – | – | – | – | – | – | –
CCc1nn(CN2CCOCC2)c(=S)n1/N=C/c1ccc(-c2ccc(Cl)cc2)o1 | > 100 | > 100 | > 100 | > 100 | > 100 | > 100 | – | – | – | – | – | – | – | – | –
O=C(c1ccccc1)c1ccc2nc(-c3c(Cl)c(Cl)c(Cl)c(Cl)c3C(=O)N/N=C/c3ccc(Cl)cc3)[nH]c2c1 | > 100 | > 100 | > 100 | 65.7 | > 100 | 21.1 | – | – | – | – | – | – | – | – | –
O=[N+]([O-])c1nccn1CCCNc1ccnc2cc(Cl)ccc12 | > 100 | 6.71 | > 100 | > 17.8 | > 100 | > 100 | – | – | – | – | – | – | – | – | –
C[n+]1ccc(/C2=C3\C=CC(=N3)/C(c3cc[n+](C)cc3)=c3/cc/c([nH]3)=C(\c3cc[n+](C)cc3)C3=N/C(=C(/c4cc[n+](C)cc4)C4C=CC2N4)C=C3)cc1 | > 32.2 | > 100 | > 100 | > 100 | > 100 | > 100 | – | – | – | – | – | – | – | – | –
CCn1c2ccccc2c2ccc3c(c21)C(=O)C=CC3=O | 31.7 | 4.52 | 14.2 | 30.2 | – | 12.9 | – | 21.7 | 14.9 | 25.8 | 3.56 | 33.8 | 57.5 | 23.2 | 12.9
C=CCN1C(=O)/C(=C/c2cccs2)N=C1SC/C=C/C | > 100 | 97.5 | > 100 | > 100 | > 100 | 62.2 | – | – | – | – | – | – | – | – | –
COc1cc2c(cc1OC)C1C=NC(C2)c2cc(OC)c(OC)cc21 (stereo not drawn) | > 100 | > 100 | > 100 | > 100 | > 100 | > 100 | – | – | – | – | – | – | – | – | –
CN(C)c1ccc(NN=C2SC(=Nc3ccccc3)C(=Nc3ccccc3)S2)cc1 | > 100 | > 100 | > 100 | > 100 | > 100 | > 100 | – | – | – | – | – | – | – | – | –
O=C(CCCN1CCC2(CC1)CC(c1ccccc1)OC2=O)c1ccc(F)cc1 (stereo not drawn) | > 100 | > 100 | > 100 | > 100 | > 100 | > 100 | – | – | – | – | – | – | – | – | –
CCC1(c2ccccc2)C(=O)N=C(c2ccccc2)N1CCc1ccccc1 (stereo not drawn) | > 100 | > 100 | > 100 | > 100 | > 100 | > 100 | – | – | – | – | – | – | – | – | –
COc1cccc(OC)c1C(=O)OCc1ccccc1 | > 100 | > 100 | > 100 | > 100 | > 100 | > 100 | > 100 | > 100 | > 100 | > 100 | > 100 | – | – | – | > 100
O=S1(=O)OCCOS(=O)(=O)C1(F)Br | > 100 | > 100 | > 100 | > 100 | > 100 | > 100 | – | – | – | – | – | – | – | – | –
CC(=O)Nc1ccc(C(O)/C(=N/N)c2nc3ccc(Cl)cc3[nH]c2=O)cc1 (stereo not drawn) | > 100 | > 100 | > 100 | > 100 | > 100 | > 100 | – | – | – | – | – | – | – | – | –
COc1cc(C2SCC(=O)N2c2cccc(Cl)c2)cc(OC)c1OC (stereo not drawn) | > 100 | > 100 | > 100 | > 100 | > 100 | > 100 | – | – | – | – | – | – | – | – | –
CCCCCCCOc1ccc(/C=C\c2cc[n+](CCCCCCCC[n+]3ccc(/C=C\c4ccc(OCCCCCCC)cc4)cc3)cc2)cc1 | 24.6 | 10.7 | > 100 | > 100 | – | > 100 | 63.1 | 36 | 67 | > 100 | 34.8 | 71.1 | > 100 | 28.4 | –
